The values that follow come from patent EP0426075A1, “Benzylpyrrolidine derivatives as dopamine agonists” (SYNTEX (U.S.A.) INC., priority 1989, dated 1991).

The test system of one test is DA2 receptor. As to the kind of experiment: Goldberg in situ femoral arterial preparation (DA2 assay), intra-arterial injection. It counts as in vivo, dog. To be noted: optimal response of test compound divided by optimal response of DPDA. As for the experimental part:
(§1) The compounds were subsequently tested following intra-arterial administration in an in situ renal and femoral arterial preparation in the dog, as developed by L.I. Goldberg, to test for DA1 and DA2 dopamine activity, respectively. Details of the methodology are provided in the European J. Pharmacol. 89 :137, 1983, as well as in Hypertension 6 :1-25, 1984.
(§2) The compounds of this invention were tested following intra-arterial administration in an in situ renal and femoral arterial preparation in the dog, as developed by L.I. Goldberg, to test for DA1 and DA2 dopamine activity, respectively. Details of the methodology are provided in the European J. Pharmacol. , 89 :137, 1983, as well as in Hypertension , 6 :1-25, 1984. J. L. McNay, L. I. Goldberg JPET 151 :23-31, 1966.
(§3) The compounds were injected directly into the renal or femoral artery for analysis of DA, or DA2 activity, respectively. […] The compounds were tested for relative activity in comparison to the standard DA, agonist, dopamine or the standard DA2 agonist, DPDA. Specific DA, or DA2 activity of the tested compound was verified by Sch 23390 or domperidone blockade.
(§4) Adult mongrel dogs of either sex (12-20 kg) were anesthetized with pentobarbital sodium (33 mg/kg, i.v.). The animals were intubated and ventilated with room air using a Harvard respirator.
(§5) The compounds of this invention were tested following intra-arterial administration in an in situ renal and femoral arterial preparation in the dog, as developed by L.I. Goldberg, to test for DA1 and DA2 dopamine activity, respectively. Details of the methodology are provided in the European J. Pharmacol. , 89 :137, 1983, as well as in Hypertension , 6 :1-25, 1984. J. L. McNay, L. I. Goldberg JPET 151 :23-31, 1966
(§6) The compounds were injected directly into the renal or femoral artery for analysis of DA1 or DA2 activity, respectively. […] The compounds were tested for relative activity in comparison to the standard DA1 agonist, dopamine or the standard DA2 agonist, DPDA. Specific DA, or DA2 activity of the tested compound was verified by Sch 23390 or domperidone blockade.
The thoracic aorta was catheterized with a Millar micro-tip (size 5F) transducer via the right carotid artery for blood pressure monitoring. The right external jugular vein was cannulated with PE-160 tubing for supplemental pentobarbital administration. The left femoral artery was isolated and an electromagnetic flowprobe of the appropriate size (8-11 mm circ.) was placed around the artery and connected to a Caroline Medical electromagnetic flowmeter. Surface ECG leads were placed subcutaneously on the chest and limbs to monitor heart rate. A 25 gauge 3/4" needle bent 90` , 4 mm from the tip, was placed in the femoral artery proximal to the probe and connected to an infusion pump delivering saline at a constant rate of 1 ml/min. Following a saline and bradykinin challenge (0.02 to 0.04 nmoles, in 0.2 ml saline, i.a.), a dose response curve for DPDA was generated by injecting 4-fold increasing doses i.a. ranging from 3 to 48 nmoles in 0.2 ml saline. Test compounds were injected similarly in 4-fold increasing doses up to 3000 nmoles. Compounds were then repeated at their optimal dose following domperidone pretreatment (10-40 Ilg/kg, iv).
Efficacy ratios were determined by division of the optimal response of the test compound by the optimal response of the standard agent. The optimal dose of compound was defined as that which produced a maximum increase in blood flow before causing a change in systemic blood pressure. ED50 values were derived by regression analysis from individually generated dose response curves. Potency ratios were the quotients calculated from the division of the standard agent EDso by the ED50 of the test compound. […] If the inhibition of the test compound was similar to that of dopamine or DPDA, the compound was considered to be a DA, or DA2 agonist, respectively.

In another test the test system is DA1 receptor. As to the kind of experiment: Goldberg in situ renal arterial preparation (renal DA1 assay), intra-arterial injection. In kind it is in vivo, dog. To be noted: optimal response of test compound divided by optimal response of dopamine. On the procedure:
as §1, §2, §3, §4, §5, §6
The abdominal aorta was catheterized with a Millar micro-tip (size: 5F) transducer via the right femoral artery for blood pressure monitoring. The right femoral vein was cannulated with PE-160 tubing for iv saline infusion, as well as supplemental pentobarbital administration. The left renal artery was isolated through a lateral abdominal incision. An electromagnetic flowprobe of the appropriate size (8-11 mm circ.) was placed around the artery and connected to a Carolina Medical electromagnetic flowmeter. Surface ECG leads were placed subcutaneously on the chest and limbs to monitor heart rate. A 25 gauge 3/4" needle bent 90°, 4 mm from the tip, was placed in the renal artery proximal to the probe and connected to an infusion pump delivering saline at a constant rate of 1 ml/min. Following a saline and 1µg norepinephrine (NE) challenge, both given in an injection volume of 0.2 ml, the animal was treated with a phenoxybenzamine, 0.5 mg/kg/min i.a., infusion for a duration of 10-20 minutes as necessary to achieve a complete blockade of the NE challenge. Blood pressure was maintained by supplemental saline infusion (10-20 ml/kg, iv). Bradykinin, a standard for nonspecific vasodilation, was given at 0.60 nmole doses, in 0.2 ml saline, i.a., prior to generating a dose response curve for dopamine in which 4-fold increasing doses, ranging from 3 to 48 nmoles, were injected i.a. in 0.2 ml of saline (i.a. bolus). Test compounds were injected similarly in 4-fold increasing doses up to a maximum of 3000 nmoles. Compounds were then repeated at their optimal dose following Sch 23390 pretreatment (0.05 - 0.10 mg/kg, iv).
Efficacy ratios were determined by division of the optimal response of the test compound by the optimal response of the standard agent.

Turning to `CCCN(CCC)CCc1ccc(O)c(O)c1` [DPDA, di-propyl dopamine, reference compound], in the test with DA2 receptor, the “Relative Efficacy to DA2 Standard” value was determined as 1.00.
With `Cl.NCCc1ccc(O)c(O)c1` [Dopamine, 4-(2-aminoethyl)-1,2-Benzenediol hydrochloride], the “Relative Efficacy to DA1 Standard” value with DA1 receptor is recorded as 1.00.
